# Experimental data: patent US20240285670A1, “THERAPEUTIC TREATMENT OF TUMORS BY BLOCKING THE HEME SYNTHESIS-EXPORT AXIS” (Università degli Studi di Torino, priority 2021, published 2024)
# Columns and labels:
# BTECs = assay: Mitochondrial ATP levels in BTECs; format: cell-based, human; conditions: FLVCR1a-silenced vs scramble shRNA BTECs
# Text: Results were expressed as nmol NAD*/min/mg mitochondrial protein for complex I, nmol reduced cytochrome c/min/mg mitochondrial protein for complexes II-III, nmol oxidized cytochrome c/min/mg mitochondrial protein for complex IV. Data represent mean±SEM, n=3. For statistical analyses, an unpaired Student's t-test was used; *=p<0.05, **=p<0.01, *=p<0.001. […] Results are expressed as nmol/mg mitochondrial proteins. Data represent mean±SEM, n=3. For statistical analyses, an unpaired Student's t-test was used; *=p<0.05. […] Results are expressed as pmol CO2/h/mg protein. Data represent mean±SEM, n=3. For statistical analyses, an unpaired Student's t-test was used; **=p<0.01. […] Results were expressed as nmol NAD*/min/mg mitochondrial protein for complex I, nmol reduced cytochrome c/min/mg mitochondrial protein for complexes II-III, nmol oxidized cytochrome c/min/mg mitochondrial protein for complex IV. […] Results are expressed as nmol/mg mitochondrial proteins. […] Results are expressed as pmol CO2/h/mg protein. […] (H) TCA cycle enzymes activities are reported in boxes and expressed as mU/mg mitochondrial proteins. […] Results were expressed as nmol NAD^+/min/mg mitochondrial protein for complex I, nmol reduced cytochrome c/min/mg mitochondrial protein for complexes II-III, nmol oxidized cytochrome c/min/mg mitochondrial protein for complex IV. […] Results are expressed as nmol/mg mitochondrial proteins. […]
# Caco2 cells = assay: Heme content (fluorescence assay) in Caco2 cells; format: cell-based, human; conditions: FLVCR1a-silenced vs scramble shRNA Caco2 cells, 5 mM 5-ALA, time course
# Method: (A) Heme content in Caco2 cells treated with 5 mM 5-ALA (black bars and white bars) or with 5 mM 5-ALA+0.5 mM SA (light grey outlined bars) for the indicated time points. […] Values are expressed as relative fluorescence intensity. Data represent mean±SEM, n=2. For statistical analyses, a two-way analysis of variance was used, followed by the Bonferroni correction for multiple group comparisons; **=p<0.01, ***=p<0.001. 5-ALA, 5-aminolevulinic acid; SA, succinylacetone. (B) Intracellular 5-ALA levels. […] Values are expressed as peak area/μg proteins. Data represent mean±SEM of n=4 wells pooled from two independent experiments. For statistical analyses, an unpaired Student's t-test was used; **=p<0.01. 5-ALA, 5-aminolevulinic acid. […] Values are expressed as peak area/μg proteins. […] Transcript abundance, normalized to beta-actin mRNA expression, is expressed as a fold increase over a calibrator sample. […] Band intensities were measured by densitometry and normalized to vinculin expression. […]
# Intracellular heme concentration was measured using a fluorescence assay, as previously reported (Sinclair et al., 2001). […] Fluorescence (wavelength: excitation 405 nm-emission 660-720 nm) of the resultant protoporphyrin was assessed on a Glomax Multi Detection System (Promega Corporation, Madison WI, USA).
# The endogenous protoporphyrin content (measured in parallel unheated samples in oxalic acid) was subtracted. […]
substance,measurement,setting,value
"FLVCR1a shRNA: shRNA specifically down-regulating FLVCR1a without targeting FLVCR1b; pLKO.1 lentiviral clone TRCN0000059599, antisense SEQ ID No.: 2 (antisense TTGCTAATGATGCTGTACTGG; sense CCAGTACAGCATCATTAGCAA)",mitochondrial ATP levels,BTECs,increased mitochondrial ATP levels
same,intracellular heme upon induction of heme biosynthesis,Caco2 cells,faster and higher increase in the amount of intracellular heme than control cells
